Measurements taken from patent US8048455B2, “Treatment of cancer and inflammatory disorder” (Academia Sinica, priority 2006, dated 2011).
Like-named read-outs stand apart in the source and are kept apart here.

Experiments:
[1] = tested on: NO production in LPS-activated RAW 264.7 macrophages; experiment: LPS-induced NO production in RAW 264.7 macrophages (Griess reaction); format: cell-based, murine; conditions: Mus musculus, RAW264.7
Description: RAW 264.7 cells were treated with compound for 1 hour, and then incubated for 24 hours with or without LPS. Nitrite levels in cell culture medium were determined using the Griess reaction (Chiang et al. Br J Pharmacol 2005; 146:352-63; Schmidt et al. Determination of nitrite and nitrate by the Griess reaction. In: Feelisch M, Stamler J S, editors. Methods In Nitric Oxide Research. New York: John Wiley & Sons Inc.; 1996. p. 491-'7). Cell viability was examined using the MTT based assay (Scudiero et al. Cancer Res 1988; 48:4827-33).
RAW 264.7 macrophage cells were treated with or without various concentrations of CREa8 extract for 1 hour, then LPS (1 μg/ml) was added and incubated for 24 hours. […] NO in the culture medium was measured. Percentage of cell viability was also determined using MTT assay. The data represent 3 experiments and are expressed as mean±SD. […]
The inhibition of LPS-induced NO production by C. rabens extracts or purified dLGG was investigated in murine RAW 264.7 macrophages by determination of nitrite level (equivalent to NO level) in culture medium 24 hours after treatment. […] NO in the culture medium was measured using the Griess reagent. Survival of macrophages after treatment was measured using MTT assay and calculated by the following formula: viable cell number (%)=OD570 (treated cell culture)/0D570 (vehicle control)×100. […]

NO = experiment: Plasma nitrite concentration in SNP-treated mice; format: in vivo, Female ICR mice; conditions: topical pretreatment 30 min before SNP; dLGG 10 mg/site, PTIO 3.5 mg/site
Description: Female ICR mice were topically treated on their shaven back area of a 2-cm diameter (3.14 cm^2/site/mouse) with vehicle control (acetone), SNP (positive control), or with dLGG or PTIO for 30 minutes before SNP application. Mouse plasma samples were subjected to determine the nitrite content followed a published method (Moshage et al. Clin Chem 1995; 41:892-6).
To examine the capability of dLGG to scavenge NO in vivo, the plasma NO concentration in SNP-insulted mice was determined with or without pretreatment with dLGG. Female ICR mice were transdermally treated with 200 μL acetone (vehicle control) or SNP (5.96 mg/site) only for 15 minutes, or pre-treated with dLGG (10 mg/site) or PTIO (3.5 mg/site) for 30 minutes before SNP treatment.

COX-2 enzyme = target: T1, COX-2 enzyme (Ovis aries, UniProt P79208); experiment: Cyclooxygenase-2 activity assay (chemiluminescent COX inhibitor screening kit); format: biochemical; conditions: COX-2 enzyme and substrates
T1 construct: purchased Cayman Chemical
T1 sequence (P79208 17-603): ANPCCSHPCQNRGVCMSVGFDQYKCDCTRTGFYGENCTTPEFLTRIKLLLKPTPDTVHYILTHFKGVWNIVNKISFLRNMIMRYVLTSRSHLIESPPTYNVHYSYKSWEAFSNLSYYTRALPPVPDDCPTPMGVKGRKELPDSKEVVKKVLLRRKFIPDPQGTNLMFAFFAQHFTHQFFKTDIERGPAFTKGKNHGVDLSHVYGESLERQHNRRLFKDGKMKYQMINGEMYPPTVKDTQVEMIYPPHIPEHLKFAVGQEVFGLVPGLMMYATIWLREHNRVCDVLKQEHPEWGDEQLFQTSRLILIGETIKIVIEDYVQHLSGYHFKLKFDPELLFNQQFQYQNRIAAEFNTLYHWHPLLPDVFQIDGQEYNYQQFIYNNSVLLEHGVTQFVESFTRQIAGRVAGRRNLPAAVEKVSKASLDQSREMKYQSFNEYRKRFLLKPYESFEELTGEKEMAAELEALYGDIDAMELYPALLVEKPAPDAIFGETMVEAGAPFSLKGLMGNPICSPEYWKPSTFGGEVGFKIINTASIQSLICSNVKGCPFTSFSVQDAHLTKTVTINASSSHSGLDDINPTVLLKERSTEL
Description: COX-2 inhibition was measured with the chemiluminescent COX inhibitor screening assay kit (Cayman Chemical, Ann Arbor, Mich.).
The above-mentioned test compounds were incubated with COX-2 enzyme and substrates before measuring the COX-2 activity.

COX-2 protein = COX-2 protein expression (immunoblotting) in LPS-stimulated macrophages; format: cell-based, murine; conditions: LPS 18 h
Description: (§1) Total cellular proteins and the specific cytosolic and nuclear proteins were prepared using methods described in Chiang et al. Protein content was measured by the Bradford method (Bio-Rad). Protein was resolved by 5-20% gradient SDS-PAGE and subjected to immunoblotting using enhanced chemiluminescence reagents (ECL, Amersham). Monoclonal antibodies against PARP (Transduction Laboratories, Lexington, Ky.), GA3PDH (Biogenesis, Poole, UK), α-tubulin (Oncogene Science, Cambridge, UK), COX-2 (Cayman Chemical), phospho-(Ser32)-IκBα, phospho-IKKα(Ser180)/IKKβ(Ser181) (New England Biolabs, Beverly, Mass.), iNOS, IκBα, IKKα/β or NF-κB p65 (RelA) (Santa Cruz Biotechnology, Santa Cruz, Calif.) were used.
It was further examined whether dLGG affects COX-2 mRNA and protein expression using RT-PCR and immunoblotting. Cells were treated with dLGG for 1 hour, then LPS (1 μg/mL) was added for 18 hours. Total cellular protein (20 μg) was subjected to immunoblotting. Quantification of COX-2 mRNA and protein expression involved normalization to GA3PDH by densitometry.

IκBα = IκBα phosphorylation and degradation in LPS-stimulated RAW 264.7 cells (Western blot); format: cell-based, murine; conditions: dLGG 1 h, LPS 1 μg/mL 30 min
Description: as §1
Cells were treated with various concentrations of dLGG for 1 h followed by the addition of LPS (1 μg/mL) for 30 min. Western blots was then conducted using antibodies for IκBα or phospho-IκBα.

[2] = tested on: LPS binding to LPS receptors on macrophages; experiment: Binding of FITC-labeled LPS to macrophages; format: cell-based, murine

**Q.** Which IC50 ([1]; RAW 264.7, LPS 1 μg/mL 24 h, read-out: 50% inhibitory concentration for LPS-induced NO production) does the source give for CC/C=C\C/C=C\C/C=C\CCCCCCCC(=O)OC[C@H](CO[C@@H]1O[C@H](CO)[C@H](O)[C@H](O)[C@H]1O)OC(=O)CCCCCCC/C=C\C/C=C\C/C=C\CC [dLGG, 1,2-di-O-α-linolenoyl-3-O-β-galactopyranosyl-sn-glycerol] here?
**A.** The IC50 was about 14.7 µM.

**Q.** What about the IC50 ([1]; RAW 264.7, compound 1 h then LPS 1 μg/mL 24 h, read-out: IC50 for inhibiting LPS-induced NO production) of the same compound?
**A.** Its IC50 is about 11.4 µg/mL.

**Q.** And the “SNP-induced increase of nitrite plasma concentration” value (NO)?
**A.** The value was “suppressed”.

**Q.** And the IC50 (COX-2 enzyme)?
**A.** The IC50 was 5.35 µM.

**Q.** And the “Suppression of LPS-induced COX-2 protein synthesis” value (COX-2 protein; 50 μg/mL)?
**A.** The value was “approximately 60%”.

**Q.** What about the COX-2 protein level (COX-2 protein; 75 μg/mL) of the same compound?
**A.** The COX-2 protein level was “barely detectable”.

**Q.** And the IκBα degradation (IκBα)?
**A.** Its IκBα degradation is “prevented”.

**Q.** What about the “LPS-induced phosphorylation of IκBα” value (IκBα) of the same compound?
**A.** Its value is “inhibited”.

**Q.** What about the “Binding of FITC-labeled LPS to the test macrophages” value [2] of the same compound?
**A.** The value was “dose-dependently suppress”.
